*1 amine or outer side, *2 acyl side, *3 side chain or, on linkers, in order; H or OH if unused. Where a SMILES comes first, the peptide text is derived from it. Side-chain parts run from the residue outwards. [ ]: non-standard residue; d: D form. The star is where a group is joined. γGlu = O=C(O)[C@H](CCC(=O)[*:2])N[*:1]; Palmitoyl = CCCCCCCCCCCCCCCC(=O)*; Aib = CC(C)(N)C(=O)O
What was measured:
[1] = molecular target: T1, human GCGR (Homo sapiens, UniProt P47871); assay: cAMP production in CHO-K1 cells stably expressing human GCGR, DiscoveRx Hithunter cAMP XS+ (Example 4); type: cell-based; details: procedure of Example 4
T1 construct: host or cells: CHO-K1
T1 sequence (P47871 26-477): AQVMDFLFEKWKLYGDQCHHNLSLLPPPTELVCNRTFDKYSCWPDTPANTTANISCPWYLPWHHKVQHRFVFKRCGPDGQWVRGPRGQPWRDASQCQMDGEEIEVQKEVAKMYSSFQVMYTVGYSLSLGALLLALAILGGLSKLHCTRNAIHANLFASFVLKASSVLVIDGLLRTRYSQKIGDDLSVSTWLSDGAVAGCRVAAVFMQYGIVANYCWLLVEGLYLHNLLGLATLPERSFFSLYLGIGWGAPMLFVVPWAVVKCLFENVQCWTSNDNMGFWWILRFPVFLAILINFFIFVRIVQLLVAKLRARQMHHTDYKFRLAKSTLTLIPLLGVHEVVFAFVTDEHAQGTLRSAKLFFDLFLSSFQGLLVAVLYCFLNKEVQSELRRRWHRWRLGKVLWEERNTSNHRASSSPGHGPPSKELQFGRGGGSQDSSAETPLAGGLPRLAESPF
Description: (§1) The in vitro agonist potencies of the peptide of SEQ ID NO. 17 were determined using Chinese Hamster Ovary cells (CHO-K1) stably expressing human GLP-1R, GCGR or GIPR. The GLP-1R and GCGR stable cell line isogenic pools were generated by Invitrogen using their Jump-In™ targeted integration technology, whereas the stable CHO/GIPR lines were generated through classic cloning and transfection techniques (random integration) with limited dilution for selection of clones. The peptides were tested in vitro for their relative abilities to stimulate cAMP production in the various cell lines using the DiscoveRx Hithunter™ cAMP XS+ assay kit (cat#90-0075L) as per kit instructions.

[2] = molecular target: T2, human GIPR (Homo sapiens, UniProt P48546); assay: cAMP production in CHO-K1 cells stably expressing human GIPR, DiscoveRx Hithunter cAMP XS+ (Example 4); type: cell-based; details: procedure of Example 4, read-out: EC50 (nM) at GIP receptor
T2 construct: expressed in transfected cells; host or cells: CHO-K1
T2 sequence (P48546 22-466): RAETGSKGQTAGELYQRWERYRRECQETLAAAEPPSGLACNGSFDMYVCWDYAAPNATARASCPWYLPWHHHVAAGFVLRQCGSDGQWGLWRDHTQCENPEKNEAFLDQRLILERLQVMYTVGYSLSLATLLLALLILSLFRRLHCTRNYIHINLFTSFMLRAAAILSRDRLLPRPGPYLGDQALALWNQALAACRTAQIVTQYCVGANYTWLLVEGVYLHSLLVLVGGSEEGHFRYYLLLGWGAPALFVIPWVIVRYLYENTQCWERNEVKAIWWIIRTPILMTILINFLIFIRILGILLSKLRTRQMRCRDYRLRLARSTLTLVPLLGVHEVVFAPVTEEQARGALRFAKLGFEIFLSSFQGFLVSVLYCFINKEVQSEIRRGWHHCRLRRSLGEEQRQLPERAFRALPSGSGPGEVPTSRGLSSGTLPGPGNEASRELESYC
Description: as §1

[3] = body weight of diet-induced obese (DIO) mice dosed daily for nine days (Example 7); type: in vivo; details: Day 9
Description: (§2) Mice were administered a vehicle control or a dose of a peptide daily for nine days. The peptides tested in this study included a peptide of SEQ ID NO: 12, a peptide of SEQ ID NO: 17, a peptide of SEQ ID NO: 18, and a peptide of SEQ ID NO: 19. Doses of each peptide were varied—each of the peptides of SEQ ID NO: 12, 17, and 19 was administered at a dose of either 3 nmol/kg or 9 nmol/kg, while the peptide of SEQ ID NO: 18 was administered at a dose of 1 nmol/kg, 3 nmol/kg, or 9 nmol/kg. Data are expressed as mean±SEM.

[4] = ambient glucose levels of DIO mice dosed daily for nine days (Example 7); type: in vivo
Description: as §2
In addition to cumulative body weight change, ambient glucose levels of the DIO mice were measured.

[5] = body weight of obese rhesus monkeys dosed daily for 21 days (Example 8); type: in vivo
Description: (§3) The in vivo effects of a peptide of the invention were confirmed in obese rhesus monkeys by administering daily for 21 days a vehicle control, a commercially available product (Liraglutide), a peptide of SEQ ID NO: 20, or a peptide of SEQ ID NO: 17. […] Body weight and food intake were measured.

[6] = food intake of obese rhesus monkeys dosed daily for 21 days (Example 8); type: in vivo; details: 3 μg/kg s.c. daily for 21 days
Description: as §3

[7] = fasting blood glucose (FBG) of diabetic rhesus monkeys treated for 10 days (Example 9); type: in vivo; details: 1 μg/kg s.c. for 10 days
Description: (§4) The in vivo effects of a peptide of the invention were tested in diabetic rhesus monkeys (n=7) that were aged 16-26 years and having an average body weight of […]. Diabetic rhesus monkeys (n=7) that were aged 16-26 years with an average body weight of […] were administered a vehicle control, Liraglutide at a dose of 10 μg/kg s.c. or a peptide of SEQ ID NO: 17 at a dose of 1 μg/kg s.c. for 10 days. At the end of each treatment, fasting blood glucose (FBG) was measured first followed by a Meal Tolerance Test (MTT) to assess glucose tolerance. […] Data are expressed in FIG. 4 as mean±SEM. *P<0.05 versus vehicle.

[8] = Meal Tolerance Test (MTT) in diabetic rhesus monkeys treated for 10 days (Example 9); type: in vivo; details: 1 μg/kg s.c. for 10 days
Description: as §4

[9] = molecular target: human GLP-1R (Homo sapiens, UniProt P43220); assay: cAMP production in CHO-K1 cells stably expressing human GLP-1R, DiscoveRx Hithunter cAMP XS+ (Example 4); type: cell-based; set-up: host or cells: CHO-K1; details: CHO-K1 stably expressing human GLP-1R, procedure of Example 4
human GLP-1R, sequence (P43220 24-463): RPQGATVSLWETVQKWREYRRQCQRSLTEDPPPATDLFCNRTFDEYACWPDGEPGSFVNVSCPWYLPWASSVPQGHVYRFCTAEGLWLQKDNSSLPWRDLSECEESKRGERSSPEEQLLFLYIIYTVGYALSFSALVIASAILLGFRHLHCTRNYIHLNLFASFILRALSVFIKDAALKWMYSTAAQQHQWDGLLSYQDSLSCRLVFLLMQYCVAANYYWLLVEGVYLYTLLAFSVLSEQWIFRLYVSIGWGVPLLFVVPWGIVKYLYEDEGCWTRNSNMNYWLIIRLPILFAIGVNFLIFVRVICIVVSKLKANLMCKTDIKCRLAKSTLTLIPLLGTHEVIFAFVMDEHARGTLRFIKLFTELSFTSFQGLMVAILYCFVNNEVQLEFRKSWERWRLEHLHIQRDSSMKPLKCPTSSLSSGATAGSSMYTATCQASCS
Description: as §1

CCCCCCCCCCCCCCCC(=O)N[C@@H](CCC(=O)N[C@@H](CCC(=O)NCCCC[C@H](NC(=O)[C@H](CC(=O)O)NC(=O)[C@H](CO)NC(=O)[C@@H](NC(=O)[C@H](Cc1ccccc1)NC(=O)[C@@H](NC(=O)CNC(=O)[C@H](CCC(N)=O)NC(=O)C(C)(C)NC(=O)[C@@H](N)Cc1c[nH]cn1)[C@@H](C)O)[C@@H](C)O)C(=O)N[C@@H](CO)C(=O)N[C@@H](CCCCN)C(=O)N[C@@H](Cc1ccc(O)cc1)C(=O)N[C@@H](CC(C)C)C(=O)N[C@@H](CC(=O)O)C(=O)NC(C)(C)C(=O)N[C@@H](CCCNC(=N)N)C(=O)N[C@@H](C)C(=O)N[C@@H](C)C(=O)N[C@@H](CCC(N)=O)C(=O)N[C@@H](CC(=O)O)C(=O)N[C@@H](Cc1ccccc1)C(=O)N[C@H](C(=O)N[C@@H](CCC(N)=O)C(=O)N[C@@H](Cc1c[nH]c2ccccc12)C(=O)N[C@@H](CC(C)C)C(=O)N[C@@H](CCSC)C(=O)N[C@@H](CC(N)=O)C(=O)N[C@H](C(=O)N[C@@H](CCCCN)C(=O)N[C@@H](CCC(N)=O)C(=O)O)[C@@H](C)O)C(C)C)C(=O)O)C(=O)O [SEQ ID NO: 17] (H-H[Aib]QGTFTSDK([γGlu-γGlu-Palmitoyl])SKYLD[Aib]RAAQDFVQWLMNTKQ-OH; N-terminus assumed)
EC50 [1]: 0.11 nM
EC50 [2]: > 2000 nM
body weight reduction ([3]; 3 nmol/kg daily): ~9.6%
body weight loss ([3]; 9 nmol/kg daily): ~35.5%
reduction in glucose levels compared to vehicle control mice ([4]; 3 nmol/kg daily, Day 7): ~28%
decrease in glucose levels compared to vehicle control mice ([4]; 3 nmol/kg daily, Day 9): ~19%
decrease in glucose levels compared to vehicle control mice ([4]; 9 nmol/kg daily, Day 4): ~48%
decrease in glucose levels compared to vehicle control mice ([4]; 9 nmol/kg daily, Day 7): ~48%
decrease in glucose levels compared to vehicle control mice ([4]; 9 nmol/kg daily, Day 9): ~45%
weight loss vs. baseline and vehicle ([5]; 3 μg/kg s.c. daily for 21 days): -1.2 kg
body weight following a one week wash-out ([5]; Day 28, after 21 days at 3 μg/kg s.c.): regained much of the weight that was lost
food intake, % change vs. baseline [6]: −25.7%
FBG change vs. vehicle [7]: −25%
fasting blood glucose (FBG) ([7]; mean±SEM): 120 ± 20 mg/dL
glucose tolerance during MTT as compared to vehicle [8]: improved glucose tolerance
EC50 [9]: 0.075 nM

— patent publication US20140221283A1 (Indiana University Research and Technology Corporation, priority 2011, published 2014)
